# In publication PMC12582325 (Proceedings of the National Academy of Sciences of the …, 2025):
# Values joined by “and” are separate entries in the source; they are usually repeats but may differ in a detail not shown here. Identical values can stand only once. Where a SMILES comes first, the peptide text is derived from it.
# Assays:
# Fo.Ste2 [1] = type: cell-based, Fusarium oxysporum
# Fo.Ste2 [2] = type: cell-based, Fusarium oxysporum; remark: listed apart in the source
# Bb.Ste2 = type: cell-based, Beauveria bassiana
# Hj.Hpr2 = type: cell-based, Hypocrea jecorina
# [3] = test system: no_GPCR (negative control lacking a GPCR); type: cell-based, Saccharomyces cerevisiae
# [4] = test system: F. oxysporum microconidia; assay: Germination of F. oxysporum microconidia; type: cell-based, Fusarium oxysporum f. sp. lycopersici 4287; set-up: Germination of F. oxysporum microconidia (data of Sup.Fig.10): unit not given here; conditions: for Germination of F. oxysporum microconidia (data of Sup.Fig.10): 400 μM pheromone, 13 h, at least 300 spores counted
# Description: For F. oxysporum microconidia production, the strain was grown for 3 to 4 d in liquid potato dextrose broth (PDB) at 28 °C and 170 rpm. Germination media ([10]) was used for assessing the spore germination. RE was prepared by removing 2-wk-old tomato plants from vermiculite and washing the roots to remove any adhering substrates ([11]).
# Supplementary Figure 10. Germination of F. oxysporum microconidia after 13 h of incubation in Germination Media at a cell density of […] microconidia/mL. The assay was performed with 400 μM of pheromone. All points represent the average of three biological replicates in which at least 300 spores were counted. Statistical significance was determined through one-way analysis of variance (ANOVA) with Dunnett’s multiple comparisons (✱p ≤ 0.05).
# [5] = test system: F. oxysporum on tomato roots; assay: Tomato root inoculation and fluorescence microscopy of infected roots; type: in vivo, Fusarium oxysporum / Solanum lycopersicum; conditions: exogenous addition of pheromone to microconidia; 3 d after inoculation; fluorescence microscopy
# [6] = test system: F. oxysporum infection of tomato plants; assay: Tomato plant mortality assay; type: in vivo, Fusarium oxysporum / Solanum lycopersicum; conditions: groups of 10 plants; 3.2 × 10^6 microconidia/mL supplemented with pheromone once at inoculation; 50 d; Kaplan-Meier, log-rank
# Description: Tomato plant infection assays were performed as described ([61]) with F. oxysporum microconidia and treatment inoculation as described above. Plants were transferred to a growth and plant survival was recorded daily for 50 d. Plant death was diagnosed as a complete collapse of the stem, without any green parts left. The Kaplan–Meier test was used to assess statistical significance of differences in survival among groups using the log-rank test in GraphPad Prism. The infection experiment was conducted two times with 10 plants per condition.
# F. oxysporum germ tubes = conditions: gradient of 400 μM pheromone against the solvent (50% methanol); 13 h; water-agar; three biological replicates; Fig. 5A
# Description: For the B. bassiana and F. oxysporum chemotropism assay and plant infection assays the pheromones were dissolved in 50% (v/v) MeOH to reach a concentration of 4,000 μM.
# Fungal chemotropism was conducted as previously described ([11]). For each compound or combination of compounds tested, 300 hyphal tips were scored. All experiments were performed in three biological replicates.
# [7] = test system: F. oxysporum in tomato roots; assay: Quantification of fungal DNA in tomato roots (qPCR); conditions: 3 d after inoculation, washed roots; compared to the untreated infected roots; three biological replicates
# [8] = SC + added peptide, individual replicates (n=3), SC alone: 0, 0, 0
smiles,measurement,setting,value
CC(C)C[C@H](NC(=O)[C@H](CS)NC(=O)[C@@H](N)Cc1c[nH]c2ccccc12)C(=O)N[C@@H](Cc1c[nH]c2ccccc12)C(=O)N[C@@H](C)C(=O)NCC(=O)N[C@@H](CCC(N)=O)C(=O)N1CCC[C@H]1C(=O)N[C@@H](CS)C(=O)N[C@@H](Cc1c[nH]c2ccccc12)C(=O)O [A4] (H-WCLWAGQPCW-OH; N-terminus assumed),"Activation of Fo.Ste2 biosensor, in words",Fo.Ste2 [1],agonists for Fo.Ste2
same,logEC50,Fo.Ste2 [1],-9.288
same,EC50,Fo.Ste2 [1]; read-out: half-maximal effective concentration (EC50),0.516 nM
same,Fold decline in diploids containing Fo.Ste2,Fo.Ste2 [2],0.2 fold
same,"Mean 2 (SC + peptide), Fo share of diploids",Fo.Ste2 [2],0.1003
same,"Mean Diff, SC vs. + peptide",Fo.Ste2 [2]; n = 3,0.3913
same,"barcode qPCR of diploids, Fg.Ste2 x Hj.Pheromone","Fg.Ste2; SC + added peptide, individual replicates (n=3), SC alone: 0.003, 0.004, 0.001",0
same,"barcode qPCR of diploids, Fg.Ste2 x Fo.Pheromone","Fg.Ste2; SC + added peptide, individual replicates (n=3), SC alone: 0.005, 0.005, 0.013",0.012 and 0.1 and 0.242
same,"barcode qPCR of diploids, Fg.Ste2 x no_Pheromone","Fg.Ste2; SC + added peptide, individual replicates (n=3), SC alone: 0.012, 0.001, 0.003",0.015 and 0.01 and 0.037
same,"barcode qPCR of diploids, Fg.Ste2 x Bb.Pheromone","Fg.Ste2; SC + added peptide, individual replicates (n=3), SC alone: 0.012, 0.009, 0.006",0.004 and 0 (2×)
same,"barcode qPCR of diploids, Fg.Ste2 x Fg.Pheromone","Fg.Ste2; SC + added peptide, individual replicates (n=3), SC alone: 0.206, 0.237, 0.235",0.014 and 0.192 and 0
same,Fold reduction of Fg.Ste2 and Fg.Pheromone interaction,"Fg.Ste2; consortium in SC media, 10 μM external peptide",0.3 fold
same,Fold increase in diploids containing Fg.Ste2,"Fg.Ste2; consortium in SC media, 10 μM external peptide, three biological replicates",without increasing
same,Fold increase in formation of diploids containing Bb.Ste2,Bb.Ste2,8.7 fold
same,"Mean 2 (SC + peptide), Bb share of diploids",Bb.Ste2,0.4075
same,"Mean Diff, SC vs. + peptide",Bb.Ste2; n = 3,-0.3609
same,Fold increase in formation of diploids containing Hj.Hpr2,Hj.Hpr2,12.1 fold
same,"Mean 2 (SC + peptide), Hj share of diploids",Hj.Hpr2,0.02456
same,"barcode qPCR of diploids, Hj.HPR2 x Bb.Pheromone",Hj.Hpr2,0
same,"barcode qPCR of diploids, Hj.HPR2 x no_Pheromone",Hj.Hpr2,0
same,"Mean Diff, SC vs. + peptide",Hj.Hpr2; n = 3,-0.02252
same,"barcode qPCR of diploids, no_GPCR x Fg.Pheromone",[3]; [8],0.035 and 0.012 and 0
same,"barcode qPCR of diploids, no_GPCR x Hj.Pheromone",[3]; [8],0.002 and 0 (2×)
same,"barcode qPCR of diploids, no_GPCR x Bb.Pheromone","[3]; SC + added peptide, individual replicates (n=3), SC alone: 0, 0, 0.004",0.013 and 0.091 and 0
same,"barcode qPCR of diploids, no_GPCR x Fo.Pheromone","[3]; SC + added peptide, individual replicates (n=3), SC alone: 0, 0, 0.007",0.014 and 0.039 and 0.054
same,"barcode qPCR of diploids, no_GPCR x no_Pheromone","[3]; SC + added peptide, individual replicates (n=3), SC alone: 0.001, 0.001, 0",0.04 and 0 and 0.015
same,Fold increase in diploids of the negative control lacking a GPCR,"[3]; consortium in SC media, 10 μM external peptide, P = 0.013",19 fold
same,Germination of F. oxysporum microconidia (data of Sup.Fig.10),[4]; biological replicate 1 (first line),15
same,Germination of F. oxysporum microconidia (data of Sup.Fig.10),[4]; biological replicate 2 (second line),"33,88"
same,Germination of F. oxysporum microconidia (data of Sup.Fig.10),[4]; biological replicate 3 (third line),"6,9"
same,"Mean Diff, Solvent vs. peptide","[4]; Sup.Fig.10, Dunnett's multiple comparisons test, n = 3","25,18"
same,"Mean 2 (peptide), germination","[4]; Sup.Fig.10, Solvent control mean 43,77, mean of n = 3","18,59"
same,"Effect on F. oxysporum microconidia germination, in words","[4]; exogenous addition of 400 μM peptide, 13 h in Germination Media, 3.2 x 106 microconidia/mL",significant reduction
same,Adhesion of F. oxysporum germ tubes among themselves or to tomato roots,[5],increased adhesion
same,Tomato plant survival,[6],no significant difference in plant survival
same,Chemotropic response in F. oxysporum germ tubes,F. oxysporum germ tubes,significant chemotropic response
same,"Fungal biomass in inoculated tomato roots (qPCR of Fol4287 actin gene, 2^−ΔΔCt, normalized to tomato gapdh)",[7],significant reduction in fungal biomass
